According to PMC3362725, “An open-label, phase 1 study evaluating safety, tolerability, and pharmacokinetics of linifanib (ABT-869) in Japanese patients with solid tumors” (Cancer Chemotherapy and Pharmacology, 2012):
Where “and” joins values, the source holds several entries; their conditions need not be identical. Equal entries are not always repeated. Marks after values point to notes of the source that are not given here.

Test: Safety and tolerability: adverse events per CTCAE v3, dose-limiting toxicity, phase 1 study
Type: in vivo, human (Japanese patients with solid tumors)
Conditions: for dose-limiting toxicity observed: one patient
Method: A standard 3 + 3 design determined the dose level assignment. Patients were assigned to one of four sequential dose cohorts of once-a-day dose regimen of oral linifanib: 0.05, 0.10, 0.20, or 0.25 mg/kg, administered in the morning. […] Dose-limiting toxicity (DLT) was defined as Grade 4 neutropenia lasting >7 days, Grade 4 thrombocytopenia or decreased hemoglobin, Grade 3 or greater thrombocytopenia (if blood transfusion was required), febrile neutropenia, non-hematological toxicity except for manageable nausea, vomiting, anorexia, diarrhea, constipation or electrolyte abnormality, or a toxicity that required suspension of study drug for >7 days.
Patients self-administered linifanib once daily, on a 21-day cycle after fasting, and treatment continued until disease progression or intolerable toxicity. […] The initial oral dose, 2.5–25.0 mg in increments of 2.5 mg, was determined by the patients’ weights. […] The dose was reduced by 5.0 mg for patients ≥86 kg in the 0.10 mg/kg cohort, for patients in the 0.20 mg/kg cohort who were ≥81 kg at the first reduction and 61–80 and ≥96 kg at the 2nd reduction, and for patients in the 0.25 mg/kg cohort who were ≥66 kg at the first reduction and ≥86 kg at the second reduction. Patients were discontinued if they required dose reduction, specified by cohort: Any reduction (0.05 mg/kg cohort); >1 reduction (0.10 mg/kg cohort, and patients ≤31 kg in the 0.20 mg/kg cohort with an initial 5 mg dose); >2 reductions (0.25 mg/kg cohort, and patients ≥32 kg in the 0.20 mg/kg cohort with an initial ≥7.5 mg dose).
Baseline evaluations included physical examination, body weight, vital signs, 12-lead electrocardiogram, ECOG PS assessment, pregnancy test, laboratory tests, and multiple-gated acquisition scan/echocardiogram. Tumor response and/or disease progression was assessed by computerized tomography (CT) scan or magnetic resonance imaging (MRI) per RECIST [20] at screening and on Day (D) 1 of every second cycle prior to the subsequent treatment period, until tumor progression or until final visit. Complete response and partial response (PR) were defined according to RECIST [20]; objective response rate (ORR) was defined as the proportion of patients with best response of PR or CR among the study population. Safety assessments included laboratory test results and adverse events (AEs), which were graded according to CTCAE v3 [18] and coded by medical dictionary of regulatory activities (MedDRA) 1.0.

## Cc1ccc(F)c(NC(=O)Nc2ccc(-c3cccc4[nH]nc(N)c34)cc2)c1 [linifanib, N-(4-(3-amino-1H-indazol-4-yl)phenyl)-N’-(2-fluoro-5-methylphenyl)urea]
0.05 mg/kg dose
  Grade 3 linifanib-related AEs: no Grade 3 linifanib-related AEs
0.05 mg/kg n = 3, G1
  ALT increased, linifanib-related AE, patients: 1
  AST increased, linifanib-related AE, patients: 1
  Anorexia, linifanib-related AE, patients: 1
  Blood ALKP increased, linifanib-related AE, patients: 1
  Blood TG increased, linifanib-related AE, patients: 1
  Blood cholesterol increased, linifanib-related AE, patients: 2
  Blood urine present, linifanib-related AE, patients: 1
  Diarrhea, linifanib-related AE, patients: 1
  Hypertension, linifanib-related AE, patients: 1
  Neutropenia, linifanib-related AE, patients: 2
  Rash, linifanib-related AE, patients: 1
  Weight decreased, linifanib-related AE, patients: 2
0.05 mg/kg n = 3, G2
  Blood ALKP increased, linifanib-related AE, patients: 1
  Hypertension, linifanib-related AE, patients: 2
0.10 mg/kg cohort
  dose-limiting toxicity observed: Grade 3 ALT increase
0.10 mg/kg dose
  Grade 3 linifanib-related AEs: three
0.10 mg/kg n = 6, G1
  ALT increased, linifanib-related AE, patients: 2
  AST increased, linifanib-related AE, patients: 4
  Anorexia, linifanib-related AE, patients: 2
  Blood ALKP increased, linifanib-related AE, patients: 1
  Blood TG increased, linifanib-related AE, patients: 3
  Blood TSH increased, linifanib-related AE, patients: 3
  Blood cholesterol increased, linifanib-related AE, patients: 3
  Blood urine present, linifanib-related AE, patients: 2
  Diarrhea, linifanib-related AE, patients: 3
  Fatigue, linifanib-related AE, patients: 1
  GGT increased, linifanib-related AE, patients: 3
  Leukopenia, linifanib-related AE, patients: 2
  Neutropenia, linifanib-related AE, patients: 1
  Proteinuria, linifanib-related AE, patients: 1
  Rash, linifanib-related AE, patients: 3
  Thrombocytopenia, linifanib-related AE, patients: 1
  Weight decreased, linifanib-related AE, patients: 2
0.10 mg/kg n = 6, G2
  Blood TG increased, linifanib-related AE, patients: 1
  Fatigue, linifanib-related AE, patients: 1
  GGT increased, linifanib-related AE, patients: 1
  Hypertension, linifanib-related AE, patients: 5
  Leukopenia, linifanib-related AE, patients: 1
  Palmar-plantar erythrodysaesthesia, linifanib-related AE, patients: 3
  Proteinuria, linifanib-related AE, patients: 2
  Thrombocytopenia, linifanib-related AE, patients: 1
  Weight decreased, linifanib-related AE, patients: 1
0.10 mg/kg n = 6, G3
  Neutropenia, linifanib-related AE, patients: 1
  Proteinuria, linifanib-related AE, patients: 1
0.20 mg/kg n = 3, G1
  ALT increased, linifanib-related AE, patients: 2
  AST increased, linifanib-related AE, patients: 2
  Anorexia, linifanib-related AE, patients: 1
  Blood ALKP increased, linifanib-related AE, patients: 1
  Blood TG increased, linifanib-related AE, patients: 3
  Blood TSH increased, linifanib-related AE, patients: 3
  Blood cholesterol increased, linifanib-related AE, patients: 2
  Blood urine present, linifanib-related AE, patients: 2
  Diarrhea, linifanib-related AE, patients: 1
  Fatigue, linifanib-related AE, patients: 1
  GGT increased, linifanib-related AE, patients: 1
  Leukopenia, linifanib-related AE, patients: 2
  Rash, linifanib-related AE, patients: 1
  T-wave abnormality, linifanib-related AE, patients: 1
  Weight decreased, linifanib-related AE, patients: 1
0.20 mg/kg n = 3, G2
  Anorexia, linifanib-related AE, patients: 1
  Blood cholesterol increased, linifanib-related AE, patients: 1
  Fatigue, linifanib-related AE, patients: 1
  Hypertension, linifanib-related AE, patients: 2
  Neutropenia, linifanib-related AE, patients: 2
  Palmar-plantar erythrodysaesthesia, linifanib-related AE, patients: 3
  Thrombocytopenia, linifanib-related AE, patients: 2
  Weight decreased, linifanib-related AE, patients: 2
0.20 mg/kg n = 3, G3
  Diarrhea, linifanib-related AE, patients: 1
  Hypertension, linifanib-related AE, patients: 1
  Proteinuria, linifanib-related AE, patients: 1
0.25 mg/kg cohort, dose interruption >7 days, discontinuation on D29
  dose-limiting toxicity observed: Grade 1 T-wave inversion
0.25 mg/kg dose
  Grade 3 linifanib-related AEs: four
0.25 mg/kg n = 6, G1
  ALT increased, linifanib-related AE, patients: 3
  AST increased, linifanib-related AE, patients: 6
  Blood ALKP increased, linifanib-related AE, patients: 4
  Blood TG increased, linifanib-related AE, patients: 2
  Blood TSH increased, linifanib-related AE, patients: 1
  Blood cholesterol increased, linifanib-related AE, patients: 2
  Blood urine present, linifanib-related AE, patients: 4
  Fatigue, linifanib-related AE, patients: 4
  GGT increased, linifanib-related AE, patients: 3
  Leukopenia, linifanib-related AE, patients: 3
  Neutropenia, linifanib-related AE, patients: 2
  Proteinuria, linifanib-related AE, patients: 1
  Rash, linifanib-related AE, patients: 6
  Thrombocytopenia, linifanib-related AE, patients: 2
  Weight decreased, linifanib-related AE, patients: 1
0.25 mg/kg n = 6, G1, dose-limiting toxicity
  T-wave abnormality, linifanib-related AE, patients: 1^a
0.25 mg/kg n = 6, G2
  Anorexia, linifanib-related AE, patients: 2
  Blood TG increased, linifanib-related AE, patients: 1
  Blood TSH increased, linifanib-related AE, patients: 1
  Diarrhea, linifanib-related AE, patients: 2
  Fatigue, linifanib-related AE, patients: 1
  Hypertension, linifanib-related AE, patients: 6
  Leukopenia, linifanib-related AE, patients: 2
  Neutropenia, linifanib-related AE, patients: 2
  Palmar-plantar erythrodysaesthesia, linifanib-related AE, patients: 3
  Proteinuria, linifanib-related AE, patients: 2
  Thrombocytopenia, linifanib-related AE, patients: 2
  Weight decreased, linifanib-related AE, patients: 1
0.25 mg/kg n = 6, G3
  ALT increased, linifanib-related AE, patients: 1
  Neutropenia, linifanib-related AE, patients: 1
  Proteinuria, linifanib-related AE, patients: 2
18 patients
  dose reductions or interruptions for hypertension, neutropenia, or leucopenia: no dose reductions or interruptions
All patients N = 18, any grade
  ALT increased, linifanib-related AE, patients: 10 (56) n (%)
  AST increased, linifanib-related AE, patients: 13 (72) n (%)
  Anorexia, linifanib-related AE, patients: 7 (39) n (%)
  Blood ALKP increased, linifanib-related AE, patients: 8 (44) n (%)
  Blood TG increased, linifanib-related AE, patients: 11 (61) n (%)
  Blood TSH increased, linifanib-related AE, patients: 8 (44) n (%)
  Blood cholesterol increased, linifanib-related AE, patients: 10 (56) n (%)
  Blood urine present, linifanib-related AE, patients: 9 (50) n (%)
  Diarrhea, linifanib-related AE, patients: 8 (44) n (%)
  Fatigue, linifanib-related AE, patients: 9 (50) n (%)
  GGT increased, linifanib-related AE, patients: 8 (44) n (%)
  Hypertension, linifanib-related AE, patients: 17 n (%) and 17 (94) n (%)
  Leukopenia, linifanib-related AE, patients: 10 (56) n (%)
  Neutropenia, linifanib-related AE, patients: 11 (61) n (%)
  Palmar-plantar erythrodysaesthesia, linifanib-related AE, patients: 9 (50) n (%)
  Proteinuria, linifanib-related AE, patients: 10 (56) n (%)
  Rash, linifanib-related AE, patients: 11 (61) n (%)
  T-wave abnormality, linifanib-related AE, patients: 2 (11) n (%)
  Thrombocytopenia, linifanib-related AE, patients: 8 (44) n (%)
  Weight decreased, linifanib-related AE, patients: 10 (56) n (%)
Japanese patients with solid tumors, dose range 0.05–0.25 mg/kg
  tolerability: well tolerated
All cohorts, 18 patients
  number of DLTs reported: Two
All doses, 18 patients
  Grade 4 or 5 AEs: no Grade 4 or 5 AEs
Of 16 who discontinued
  patients who discontinued due to AEs: two
